According to PubChem BioAssay (NCI):
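All cell lines were grown in 96-well plates and treated with compound for 48 hours. GI50 is the concentration that inhibits growth by half. TGI denotes the concentration required for complete inhibition of growth.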

How the values were obtained:
Experiment in all cases: DTP human tumour cell line panel, 48 h
MDA-MB-435 = tested on: MDA-MB-435
NCI-H460 lung = tested on: NCI-H460 lung
NCI-H226 lung = tested on: NCI-H226 lung
EKVX NSCLC = tested on: EKVX NSCLC
MDA-MB-231 breast = tested on: MDA-MB-231 breast
SK-MEL-5 melanoma = tested on: SK-MEL-5 melanoma
UACC-257 melanoma = tested on: UACC-257 melanoma
OVCAR-5 ovarian = tested on: OVCAR-5 ovarian
A498 renal = tested on: A498 renal
786-0 renal = tested on: 786-0 renal
RPMI-8226 leukemia = tested on: RPMI-8226 leukemia

Row | Compound | TGI (MDA-MB-435) [µM] | TGI (NCI-H460 lung) [µM] | TGI (NCI-H226 lung) [µM] | TGI (EKVX NSCLC) [µM] | TGI (MDA-MB-231 breast) [µM] | TGI (SK-MEL-5 melanoma) [µM] | TGI (UACC-257 melanoma) [µM] | TGI (OVCAR-5 ovarian) [µM] | TGI (A498 renal) [µM] | TGI (786-0 renal) [µM] | GI50 (NCI-H460 lung) [µM] | TGI (RPMI-8226 leukemia) [µM]
1 | O=[N+]([O-])C(=C(N1CCOCC1)N1CCOCC1)/C(Cl)=C(\Cl)[N+](=O)[O-] | 23.1 | 70.7 | > 100 | 23.2 | 10.1 | 3.04 | 10.5 | 31.4 | 36.1 | 9.76 | – | –
2 | C=C[C@H]1CN2CCc3c([nH]c4c([C@H]5CCCN5C)c(O)ccc34)[C@@H]2C[C@@H]1C[C@H]1c2[nH]c3ccccc3c2CCN1C | 2.83 | 3.53 | – | 3.34 | 3.41 | – | 3.54 | 3.26 | – | 2.77 | 1.74 | –
3 | CCOC(=O)CC[C@@H](NC(=O)c1ccc(N[C@@H]2c3cc4c(cc3C(c3cc(OC)c(O)c(OC)c3)C3C(=O)OC[C@@H]32)OCO4)cc1)C(=O)OCC (some centres not stated) | – | 0.0174 | – | 0.0799 | – | 0.144 | 0.724 | 0.404 | 0.0668 | > 10 | – | > 10
4 | COC(=O)CC1C(=O)OCc2c1cc1n(c2=O)Cc2c-1nc1ccccc1c2OC (configuration not stated) | – | > 100 | – | > 100 | – | > 100 | > 100 | > 100 | > 100 | > 100 | – | > 100
5 | CCCNC(=S)/N=C\c1c(O)c2ccccc2oc1=O | > 100 | > 100 | > 100 | > 100 | > 100 | > 100 | > 100 | > 100 | > 100 | > 100 | – | –
6 | CC1OC(O[C@H]2CC[C@]3(C)[C@H]4CC=C5[C@@H]6[C@@H](C)[C@H](C)CC[C@]6(C(=O)O)CC[C@@]5(C(=O)O)[C@]4(C)CC[C@H]3C2(C)C)C(O)C(O)C1O (some centres not stated) | > 75 | > 75 | – | – | > 75 | > 75 | > 75 | > 75 | > 75 | > 75 | – | –
7 | CN(C)CCNc1ccc2c(=O)n(CCN(C)C)c(=O)n3c4ccc(N)cc4c(=O)c1c23 | 0.273 | 0.56 | 0.573 | 0.593 | 0.866 | 1.37 | 2.51 | 0.844 | 2.37 | 1.18 | – | –
8 | CC1N(C)C(=O)OC12CCN(CCCC(=O)c1ccc(F)cc1)CC2 (configuration not stated) | > 100 | > 100 | > 100 | – | > 100 | > 100 | > 100 | > 100 | > 100 | > 100 | – | > 100
9 | O=C1CCC2SC1CCC2=O | > 100 | > 100 | > 100 | > 100 | > 100 | > 100 | > 100 | > 100 | > 100 | > 100 | – | –
10 | COC(=O)c1c(C(=O)OC)c2cc(C(=O)c3ccccc3)ccn2c1Cl | – | > 100 | 64.7 | > 100 | – | 33.2 | – | > 100 | – | > 100 | – | 51.7
11 | NC1CC(=O)c2cc(Br)sc21 (configuration not stated) | > 100 | > 100 | – | > 100 | > 100 | > 100 | > 100 | > 100 | > 100 | > 100 | – | > 100
12 | S=C(Nc1cccc(Cl)c1)Nc1ccccn1 | > 100 | > 100 | > 100 | > 100 | – | > 100 | > 100 | > 100 | – | > 100 | – | > 100
13 | Cc1cc(Cl)ccc1N=NC(=O)NNc1ccc(Cl)cc1C | 39.7 | 27.4 | 36.1 | – | 26.6 | 26.9 | 33.1 | 30.7 | 21.8 | 29.9 | – | 89.4
14 | COC(=O)[C@H](Cc1ccccc1)NC(=O)N1CCN(C(=O)N[C@@H](Cc2ccccc2)C(=O)OC)CCN(C(=O)N[C@@H](Cc2ccccc2)C(=O)OC)CC1 | > 100 | > 100 | > 100 | > 100 | – | > 100 | > 100 | > 100 | > 100 | > 100 | – | > 100
15 | Cc1ccccc1N(C)S(=O)(=O)c1ccccc1[N+](=O)[O-] | > 100 | > 100 | > 100 | > 100 | > 100 | 30.7 | > 100 | > 100 | – | > 100 | – | > 100
16 | C=C(C)[C@@H]1CC[C@]2(C(=O)O)CC[C@]3(C)[C@H](CC[C@@H]4[C@@]5(C)CC[C@H](C(=O)/C=C/c6ccc(O)cc6)C(C)(C)[C@@H]5CC[C@]43C)[C@@H]12 | 24.4 | 17.3 | – | 24.4 | 23 | 10.4 | 16.5 | 23.7 | 26.5 | > 100 | – | –
17 | CSc1cc(Cl)c(C)cc1S(=O)(=O)NC(=O)NNc1ccc(F)c(Cl)c1 | > 100 | > 100 | > 100 | > 100 | > 100 | > 100 | – | > 100 | > 100 | > 100 | – | –
18 | CC1[C@@H](OCc2ccccc2)COC(=O)N1Cc1ccccc1 (some centres not stated) | > 100 | – | > 100 | > 100 | > 100 | > 100 | > 100 | > 100 | – | > 100 | – | > 100
19 | CCCCCCCCCCCCCCCCP(=O)(O)OP(=O)(O)OCC1OC(n2cnc3c(N)ncnc32)C(O)C1O (configuration not stated) | 96.7 | 58.4 | 39.6 | > 100 | > 100 | > 100 | 60 | 29.2 | – | 53.2 | – | –
20 | CCN(CC)Cc1cc(Nc2c3ccccc3nc3c2[nH]c2ccccc23)ccc1O | – | 2.71 | 5.06 | 6.32 | – | 3.51 | 4.45 | 3.64 | 2.97 | 2.8 | – | 5.83
21 | CCC1(N=[N+]=[N-])C(=O)Nc2cc(C)ccc2C1=O (configuration not stated) | – | > 100 | – | > 100 | – | > 100 | > 100 | > 100 | > 100 | > 100 | – | –
22 | O=C(c1ccncc1)n1nc(-c2ccccc2)c(N=Nc2ccc([N+](=O)[O-])cc2)c1-c1ccccc1 | – | – | > 100 | 45.8 | – | > 100 | > 100 | – | > 100 | > 100 | – | > 100
